Reference: PMC11574021, “CEP192 localises mitotic Aurora-A activity by priming its interaction with TPX2” (The EMBO Journal, 2024)

Columns and labels:
Format in all cases: cell-based, Homo sapiens
[1] = tested on: Aurora-A-pT288 in U251 cells; assay: Western blot densitometry of Aurora-A-pT288, mitotic U251 cells; conditions: mitotic U251 (and RPE1) lysates, siRNA 48 h, in words
Method: For western blotting analysis of mitotic lysates, cells were synchronised in mitosis with 10 µM S-Trityl-L-cysteine (STLC, Bio-Techne, 2191-50), an Eg5 inhibitor, for 20 h prior to collecting by mitotic shake-off. For measuring monopolar spindle diameter and counting centriolar foci by immunofluorescence, cells were treated with 10 µM STLC for 1 h and 4 h prior to fixation, respectively.
(§1) As noted in the figures, the following drugs were incubated with cells for 30 min at 37 °C: Aurora-B-i ZM447439 2 µM [10 mM], PLK1-I BI2536 1 µM [10 mM] and Aurora-A-i MLN8237 [5 mM] was used at 250 and 500 nM in U251 and RPE1 cells, respectively. Drugs were resuspended in DMSO to the stock concentrations indicated in square brackets. BI2536 (HY-50698), MLN8237 (HY-10971) and ZM447439 (HY-10128) were all purchased from MedChemExpress. For western blotting, a 20-min pre-treatment with proteasome inhibitor (20 µM MG-132, MerckMillipore, 47490 [20 mM]) was required prior to the addition of DMSO control or kinase inhibitors. This prevented mitotic exit as a consequence of checkpoint override following Aurora-A and Aurora-B inhibitor addition.
Cells were lysed on ice for 30 min in lysis buffer (50 mM tris pH 8.0, 300 mM NaCl, 0.2%(v/v) NP-40, 10%(v/v) glycerol, protease inhibitor cocktail C, phosphatase inhibitor cocktail 3 (Sigma, 1:200 dilution), 100 nM okadaic acid (Enzo, ALX-350-003-C100)). Lysates were then centrifuged at 14,000 × g, 15 min, 4 °C, the supernatants were transferred to a fresh tube, and the pellet was discarded. Protein concentrations were measured by Bradford assay using Protein Assay Dye Reagent Concentrate (Bio-Rad Laboratories, 5000006). NuPage LDS sample buffer, supplemented with NuPAGE sample reducing agent (Invitrogen) were added prior to boiling for 10 min at 90 °C. […]
Densitometric quantification of western blots was also performed in ImageJ. Intensity was measured in a rectangular region of interest (ROI) around each band. […] An adjacent region was also measured to account for background intensity.

[2] = tested on: TACC3 in RPE1 p53-/- cells; assay: Immunofluorescence, TACC3 spindle signal intensity, RPE1 p53-/-; conditions: Aurora-A inhibitor 30 min or siRNA 48 h
Method: as §1
(§2) siRNA depletion was carried out by reverse transfection using oligofectamine (Thermo Scientific, 12252011) and lipofectamine RNAiMax (Thermo Scientific, 13778075), according to the manufacturer’s instructions, for U251 and RPE1 cells, respectively. For immunofluorescence, 1 × 10^5 cells were seeded in six-well plates and simultaneously transfected with 60 pmol siRNA duplex and 3 µl transfection reagent diluted in 200 µl Opti-MEM serum-free medium. Growth medium was added to a final volume of 2 ml. […]

[3] = tested on: PPP1CA-pT320, PRC1-pT481 and Histone-H3-pS10 in U251 cells; assay: Western blot, mitotic phosphorylations (PPP1CA-pT320, PRC1-pT481, Histone-H3-pS10), asynchronous U251; conditions: asynchronous U251, siRNA 48 h
Method: Cells were lysed on ice for 30 min in lysis buffer (50 mM tris pH 8.0, 300 mM NaCl, 0.2%(v/v) NP-40, 10%(v/v) glycerol, protease inhibitor cocktail C, phosphatase inhibitor cocktail 3 (Sigma, 1:200 dilution), 100 nM okadaic acid (Enzo, ALX-350-003-C100)). Lysates were then centrifuged at 14,000 × g, 15 min, 4 °C, the supernatants were transferred to a fresh tube, and the pellet was discarded. Protein concentrations were measured by Bradford assay using Protein Assay Dye Reagent Concentrate (Bio-Rad Laboratories, 5000006). NuPage LDS sample buffer, supplemented with NuPAGE sample reducing agent (Invitrogen) were added prior to boiling for 10 min at 90 °C. Equal amounts of protein, between 8–20 µg/lane, were loaded into pre-cast 4–12% Bis-Tris gels (Invitrogen, NP0322BOX) and proteins separated in 1x MOPS buffer (Invitrogen) and transferred to nitrocellulose membrane (0.45 µM). Nitrocellulose was then blocked in 5% milk (wt/v) in TBS, 0.1% Tween (v/v) (TBST) for 1 h. Primary and secondary antibodies were diluted in 5% milk, TBST and incubated overnight at 4 °C or for 1 h at room temperature, respectively. Species-specific secondary antibodies conjugated to horseradish peroxidase (HRP) were used (anti-Mouse, Cytiva NA931V; anti-Rabbit, Cytiva NA934; anti-Sheep, Jackson 713-035-003). Membranes were washed for 1 h in TBST, changing the buffer five times, after each antibody incubation.
as §2, with “ml. For western blotting, 1 × 10^6 cells were seeded in 10 cm dishes and transfected with 300 pmol siRNA duplex and 15 µl transfection reagent diluted in 1000 µl Opti-MEM.” for “ml.”

Molecule | activation loop phosphorylation (pT288) of Aurora-A in mitotic cell lysates [1] | spindle recruitment of TACC3 [2] | mitotic phosphorylations (PPP1CA-pT320, PRC1-pT481, Histone-H3-pS10) [3]
5′-CGGUAGUGAUAAAAGCUCAtt-3′ [siTPX2] | strongly reduced activation loop phosphorylation (pT288) of Aurora-A | fully prevented both spindle recruitment of TACC3 | increased levels of mitotic phosphorylations
5′-CAAACAACUUGGAAAUCGAtt-3′ [siCEP192] | comparable reduction in pT288 Aurora-A levels to that of TPX2 |  | increased levels of mitotic phosphorylations
COc1cc(Nc2ncc3c(n2)-c2ccc(Cl)cc2C(c2c(F)cccc2OC)=NC3)ccc1C(=O)O [Alisertib] |  | abrogated spindle recruitment of TACC3 | 
